Tests used:
[1] = test system: A549-ACE2 infected with SARS-CoV-2; test: cell count relative to DMSO; higher = less toxic; conditions: 24 h
[2] = test system: Caco-2; test: cell viability relative to DMSO; higher = less toxic; conditions: 72 h
[3] = test system: HepG2; test: as above; conditions: 72 h
[4] = test system: U2OS; test: as above; conditions: 72 h
[5] = test system: Vero E6; test: as above; conditions: 72 h
[6] = test system: A549-ACE2 infected with SARS-CoV-2; test: SARS-CoV-2 infection rate relative to DMSO; higher = more infection; conditions: 24 h
[7] = test system: A549-ACE2; test: phospholipidosis EC50; higher = less potent phospholipidosis inducer
[8] = test system: A549-ACE2; test: drug-induced phospholipidosis relative to tamoxifen; higher = more phospholipidosis
[9] = test system: A549-ACE2 infected with SARS-CoV-2; test: morphology score (similarity to uninfected cells); higher = more like uninfected cells; conditions: 24 h
[10] = test system: Caco-2; test: relative viability EC50 (midpoint between 100% and the lowest measured viability); higher = less toxic; conditions: 72 h
[11] = test system: HepG2; test: as above; conditions: 72 h
[12] = test system: U2OS; test: as above; conditions: 72 h
[13] = test system: Vero E6; test: as above; conditions: 72 h
[14] = test system: Caco-2; test: drug sensitivity score (DSS) for viability; higher = more toxic; extreme values may be limits of the assay; conditions: 72 h
[15] = test system: HepG2; test: as above; conditions: 72 h
[16] = test system: U2OS; test: as above; conditions: 72 h
[17] = test system: Vero E6; test: as above; conditions: 72 h
[18] = test system: Calu-3; test: cell viability relative to DMSO; higher = less toxic; conditions: 72 h
[19] = test system: Calu-3; test: relative viability EC50 (midpoint between 100% and the lowest measured viability); higher = less toxic; conditions: 72 h
[20] = test system: Calu-3; test: drug sensitivity score (DSS) for viability; higher = more toxic; extreme values may be limits of the assay; conditions: 72 h

COc1cccc([C@@H](C)NCCCc2ccccc2Cl)c1 [tecalcet]
Conditions | SARS-CoV-2 infection rate [%] | cell count [%] | cell viability [%] | morphology score | phospholipidosis EC50 [µM]
[1], 0.3 µM | – | 97 | – | – | –
[1], 3 µM | – | 105 | – | – | –
[1], 10 µM | – | 116 | – | – | –
[1], 30 µM | – | 112 | – | – | –
[2], 1 nM | – | – | 101 | – | –
[2], 10 nM | – | – | 94.8 | – | –
[2], 100 nM | – | – | 94.5 | – | –
[2], 1000 nM | – | – | 92.4 | – | –
[2], 10000 nM | – | – | 86.3 | – | –
[3], 1 nM | – | – | 92.9 | – | –
[3], 10 nM | – | – | 101 | – | –
[3], 100 nM | – | – | 101 | – | –
[3], 1000 nM | – | – | 108 | – | –
[3], 10000 nM | – | – | 83.1 | – | –
[4], 1 nM | – | – | 101 | – | –
[4], 10 nM | – | – | 97.6 | – | –
[4], 100 nM | – | – | 101 | – | –
[4], 1000 nM | – | – | 102 | – | –
[4], 10000 nM | – | – | 90.2 | – | –
[5], 1 nM | – | – | 108 | – | –
[5], 10 nM | – | – | 103 | – | –
[5], 100 nM | – | – | 101 | – | –
[5], 1000 nM | – | – | 101 | – | –
[5], 10000 nM | – | – | 96.2 | – | –
[6], 0.3 µM | 111 | – | – | – | –
[6], 3 µM | 84 | – | – | – | –
[6], 10 µM | 52 | – | – | – | –
[6], 30 µM | 10 | – | – | – | –
[7], 24 h | – | – | – | – | 6.31
[7], 48 h | – | – | – | – | 8.26
[7], 72 h | – | – | – | – | 11.4
[9], 0.3 µM | – | – | – | -0.35 | –
[9], 3 µM | – | – | – | 0.47 | –
[9], 10 µM | – | – | – | 0.9 | –
[9], 30 µM | – | – | – | 0.78 | –

drug-induced phospholipidosis [%], [8]
Conditions | 0.3 µM | 0.833333 µM | 3.33333 µM | 6.66667 µM | 10 µM | 30 µM
24 h | 3.6 | 1.52 | 14.2 | 49.8 | 74.2 | 90
48 h | 5 | 4.11 | 18.9 | 41.5 | 67.1 | 98.2
72 h | 7.69 | 2.06 | 15.2 | 34.4 | 61.6 | 117

Conditions | drug sensitivity score | relative viability EC50 [µM]
[10] | – | > 10
[11] | – | > 10
[12] | – | > 10
[13] | – | > 10
[14] | 0.2 | –
[15] | 0.2 | –
[16] | 0 | –
[17] | 0 | –

CC(C)(C)c1ccc(-c2nc3ccccc3[nH]2)cc1 [ZLN005]
Conditions | SARS-CoV-2 infection rate, [6] [%] | cell count, [1] [%] | cell viability, [2] [%] | cell viability, [3] [%] | cell viability, [4] [%] | cell viability, [5] [%] | cell viability, [18] [%] | morphology score, [9]
1 nM | – | – | 91.8 | 94.6 | 101 | 92.8 | 87.7 | –
10 nM | – | – | 99.8 | 98.2 | 94.2 | 98.6 | 94.1 | –
100 nM | – | – | 97.1 | 96.2 | 97.7 | 94.1 | 105 | –
0.3 µM | 99 | 98 | – | – | – | – | – | 0.14
1000 nM | – | – | 84 | 96.6 | 90.7 | 92.7 | 88.1 | –
3 µM | 87 | 113 | – | – | – | – | – | 0.37
10 µM | 57 | 115 | – | – | – | – | – | 0.7
10000 nM | – | – | 49.4 | 77.4 | 78.4 | 81.6 | 49.4 | –
30 µM | 32 | 110 | – | – | – | – | – | 0.77

drug-induced phospholipidosis [%], [8]
Conditions | 0.3 µM | 0.833333 µM | 3.33333 µM | 6.66667 µM | 10 µM | 30 µM
24 h | 3.54 | -4.68 | -5.18 | -7.34 | -8.03 | -10.2
48 h | 4.21 | -3.33 | -5.71 | -7.4 | -10.6 | -12.3
72 h | 2.86 | -4.87 | -1.84 | -5.31 | -5.63 | -6.24

Conditions | drug sensitivity score | relative viability EC50 [µM]
[10] | – | 1.4
[11] | – | > 10
[12] | – | > 10
[13] | – | > 10
[14] | 4.9 | –
[15] | 1.3 | –
[16] | 1.3 | –
[17] | 0.6 | –
[19] | – | 1.6
[20] | 4.6 | –

Cc1cccc(C)c1NC(=O)CC12CCCN1CCC2 [pilsicainide]
cell viability [%]
Conditions | [2] | [3] | [4] | [5] | [18]
1 nM | 104 | 86.5 | 96.3 | 102 | 106
10 nM | 83.8 | 102 | 92.8 | 98.7 | 94.6
100 nM | 95 | 90.2 | 99.4 | 99.9 | 87.8
1000 nM | 94.7 | 99.4 | 94.7 | 100 | 102
10000 nM | 91.9 | 91.1 | 102 | 100 | 94.7

Conditions | drug sensitivity score | relative viability EC50 [µM]
[10] | – | > 10
[11] | – | > 10
[12] | – | > 10
[13] | – | > 10
[14] | 0 | –
[15] | 0 | –
[16] | 0 | –
[17] | 0 | –
[19] | – | > 10
[20] | 0 | –

O=S(=O)(O)c1ccc2[nH]c(-c3ccccc3)nc2c1 [phenylbenzimidazole-sulfonic-acid]
cell viability [%]
Conditions | [2] | [3] | [4] | [5] | [18]
1 nM | 98.9 | 85.6 | 97.9 | 96.3 | 111
10 nM | 95.8 | 93 | 96.7 | 89.7 | 112
100 nM | 90.3 | 93.2 | 103 | 97.3 | 106
1000 nM | 93 | 94.3 | 99.3 | 96.7 | 105
10000 nM | 96.8 | 99.2 | 99.4 | 107 | 89.2

Conditions | drug sensitivity score | relative viability EC50 [µM]
[10] | – | > 10
[11] | – | > 10
[12] | – | > 10
[13] | – | > 10
[14] | 0 | –
[15] | 0 | –
[16] | 0 | –
[17] | 0 | –
[19] | – | > 10
[20] | 0 | –

Clc1ccc(C(OCCN2CCCCC2)c2ccccc2)cc1 (stereo unspecified) [cloperastine]
cell viability [%]
Conditions | [2] | [3] | [4] | [5] | [18]
1 nM | 99 | 111 | 99.4 | 93.7 | 101
10 nM | 94.9 | 109 | 96.7 | 96.4 | 93.5
100 nM | 114 | 115 | 97.1 | 100 | 129
1000 nM | 116 | 96.4 | 99.6 | 97 | 100
10000 nM | 79.9 | 84.1 | 95.4 | 86.6 | 100

Conditions | drug sensitivity score | relative viability EC50 [µM]
[10] | – | > 10
[11] | – | > 10
[12] | – | > 10
[13] | – | > 10
[14] | 0.3 | –
[15] | 0.6 | –
[16] | 0 | –
[17] | 0.3 | –
[19] | – | > 10
[20] | 0 | –

CCCCCCCCC(=O)NCc1cc(OC)c(O)cc1I [6-iodo-nordihydrocapsaicin]
cell viability [%]
Conditions | [2] | [3] | [4] | [5] | [18]
1 nM | 97.9 | 96.6 | 97.4 | 88.5 | 104
10 nM | 101 | 110 | 98 | 99.4 | 98.6
100 nM | 103 | 95.6 | 101 | 92.2 | 108
1000 nM | 97.7 | 104 | 96.6 | 92.5 | 109
10000 nM | 88.6 | 103 | 92.5 | 104 | 104

Conditions | drug sensitivity score | relative viability EC50 [µM]
[10] | – | > 10
[11] | – | > 10
[12] | – | > 10
[13] | – | > 10
[14] | 0.1 | –
[15] | 0 | –
[16] | 0 | –
[17] | 0 | –
[19] | – | > 10
[20] | 0 | –

O=C(c1ccc(F)cc1)N1CCC[C@H](c2nc(-c3ccc(F)cc3)no2)C1
cell viability [%]
Conditions | [2] | [3] | [4] | [5] | [18]
1 nM | 101 | 93.7 | 94 | 98.3 | 90
10 nM | 94.3 | 99.4 | 101 | 93.5 | 100
100 nM | 91.8 | 93 | 99.9 | 94.7 | 85.3
1000 nM | 99.7 | 96 | 98.8 | 93.9 | 98.2
10000 nM | 87.9 | 91.1 | 91.7 | 95.5 | 75.5

Conditions | drug sensitivity score | relative viability EC50 [µM]
[10] | – | > 10
[11] | – | > 10
[12] | – | > 10
[13] | – | > 10
[14] | 0 | –
[15] | 0 | –
[16] | 0 | –
[17] | 0 | –
[19] | – | > 10
[20] | 1.2 | –

CCCCC(=O)O[C@H]1CC[C@H]2[C@@H]3CCc4cc(O)ccc4[C@H]3CC[C@]12C [ESTRADIOL VALERATE]
cell viability [%]
Conditions | [2] | [3] | [4] | [5] | [18]
1 nM | 104 | 109 | 106 | 101 | 99.8
10 nM | 94.6 | 106 | 108 | 102 | 104
100 nM | 97 | 101 | 103 | 103 | 96.4
1000 nM | 105 | 97.6 | 106 | 99.5 | 97.8
10000 nM | 85.8 | 108 | 96.5 | 100 | 83.8

Conditions | drug sensitivity score | relative viability EC50 [µM]
[10] | – | > 10
[11] | – | > 10
[12] | – | > 10
[13] | – | > 10
[14] | 0.1 | –
[15] | 0 | –
[16] | 0 | –
[17] | 0 | –
[19] | – | > 10
[20] | 0.6 | –

Reference: the supplement of paper PMC13380429
